Legend:
[1] = tested on: potted pears (variety: Niju-seiki); experiment: Test of Phytotoxicity to Pears; format: in vivo, pear; conditions: 75% Wettable Powders, two weeks
Description: Test of Phytotoxicity to Pears
After air-drying, the potted pears are allowed to stand in a greenhouse.

[2] = tested on: Alternaria mali; experiment: Apple Alternaria Leaf Spot-controlling Test; format: in vivo; conditions: 500 ppm, six days after inoculation
[3] = tested on: potted young oranges (variety: Unshu); experiment: Phytotoxicity of treating compound, residual activity test; conditions: 1000 ppm, 23 mm/hr of rain
[4] = tested on: potted young oranges (variety: Unshu); experiment: Phytotoxicity of treating compound, Citrus Scab test; conditions: 250 ppm
Description: (§1) The resulting solution is sprayed, in an amount corresponding to 600 l/10a per pot, on potted young oranges (variety: Unshu) immediately after fresh leaves are unfolded. After one day, the potted young oranges are inoculated with Elsinoe fawcetti, by spraying a suspension of crushed hyphae thereof containing 50 crushed hyphae per microscopic field (magnification: X100). The suspension is prepared by culturing Elsinoe fawcetti on potato medium at a temperature of 25° C. for 30 days to form hyphae and suspending it in sterilized water.
(§2) After inoculation, the potted young oranges are allowed to stand at a temperature of 25° C. in a moist room for two days and then transferred to a greenhouse. Twenty-three days after inoculation, the leaf infested by citrus scab is examined, i.e., number of pathologic spots on a leaf is examined and the numbers of leaves infested by cirtrus scab are counted. Then, an infestation rate is calculated according to the following equation:

[5] = tested on: Venturia inaequalis; experiment: Apple Scab-controlling Test; format: in vivo; conditions: 500 ppm
[6] = tested on: Elsinoe fawcetti; experiment: Citrus Scab-controlling Test; conditions: 250 ppm
Description: as §1, §2
Infestation Rate=(Σnf/3N)×100
wherein n is the number of the infested leaves, f is an infestation index and N is the total number of the examined leaves. The infestation index is as follows.
For comparison, the above test is also carried out using a reference compound (benomyl) and plain water.

[7] = tested on: TA-100; experiment: mutagenicity test (Ames test), TA-100; format: cell-based
[8] = ichthyotoxicity; conditions: killifish, in vivo; read-out: Tlm48
[9] = tested on: Alternaria kikuchiana; experiment: Spore-germination Inhibiting Test; format: cell-based; conditions: 10 ppm, 27° C., 20 hours
Description: Spore-germination Inhibiting Test for Alternaria kukuchiana An apricot medium is inoculated with Alternaria kikuchiana and incubated at a temperature of 27° C. for 7-10 days to form conidia on the medium. […] 0.02 Ml of the prepared spore suspension containing the compound according to the present invention is dropped on a slide glass and incubated at a temperature of 27° C. under moist conditions for 20 hours. Thereafter, whether or not the spores germinate is examined under a microscope and the spore-germination rate is then calculated.

[10] = tested on: potted potatoes (variety: Chippewa); conditions: 500 ppm
[11] = tested on: Phytophthora infestans; format: in vivo; conditions: 500 ppm
[12] = tested on: Diaporthe citri; experiment: Citrus Melanose-controlling Test; format: in vivo; conditions: 500 ppm
[13] = tested on: Diaporthe citri; experiment: Test of Residual Activity against Citrus Melanose; format: in vivo; conditions: 1000 ppm, 23 mm/hr of rain
[14] = tested on: potted apples (variety: Star King); experiment: Test of Phytotoxicity to Apples; conditions: 75% Wettable Powders, dilution × 750, 600 l/10 a, two weeks
Description: The resulting solution of wettable powders is sprayed, in an amount corresponding to 600 l/10a per pot, on potted apples (variety: Star King) immediately after fresh leaves are unfolded. After air-drying, the potted apples are allowed to stand in a greenhouse. Two weeks after the spray treatment, the phytotoxicity, of the compound according to the present invention, to the potted apples is examined.
For comparison, the above test is also carried out using a reference compound (fluoroimide) and plain water.

[15] = tested on: Pseudoperonospora cubensis; experiment: Cucumber Downy Mildew-controlling Test; format: in vivo; conditions: 1000 ppm, five days after inoculation
Description: Cucumber Downy Mildew (Pseudoperonospora cubensis)-controlling Test […] After one day, the cucumbers are inoculated with Pseudoperonospora cubensis, by spraying a suspension thereof containing 30 spores per microscopic field (magnification: […]), which are collected from the leaves infested by cucumber downy mildew. […] In this test, one cucumber is planted in each pot and three pots are used.

[16] = tested on: TA-98; experiment: mutagenicity test (Ames test), TA-98; format: cell-based
[17] = peroral acute toxicity; conditions: in vivo, po, four-week-old male mouse
[18] = tested on: potted apples (variety: Star King); experiment: Phytotoxicity of treating compound, Apple Scab test; conditions: 500 ppm
[19] = tested on: potted young pears (variety: Niju-seiki); experiment: Phytotoxicity of treating compound, Pear Black Spot test; conditions: 500 ppm, damaged area on leaves
Description: (§3) The resulting solution is sprayed on unfolded leaves of potted young pears (variety: Niju-seiki) in an amount corresponding to 600 l/10a per pot. After air-drying, the unfolded leaves are inoculated with Alternaria kikuchiana, by spraying a suspension of conidia thereof containing 30 conidia per microscopic field (magnification: X200).
(§4) After inoculation, the potted young pears are allowed to stand at a temperature of 27° C. in a moist room for one day and then transferred to a greenhouse. Six days after inoculation, the leaf area infested by pear black spot, i.e., the area of pathologic spots on a leaf is examined on 5 unfolded leaves per pot and an average infestation rate is then calculated.
*The phytotoxicity of the treating compound is evaluated according to the

[20] = tested on: potted young oranges (variety: Unshu); experiment: Phytotoxicity of treating compound, Citrus Melanose test; conditions: 500 ppm
[21] = tested on: Alternaria kikuchiana; experiment: Pear Black Spot-controlling Test; conditions: 500 ppm, six days after inoculation
Description: Pear Black Spot (Alternaria kikuchiana)-controlling Test
as §3, §4

[22] = index 3 = 51-100% infested area

O=C1C(Cl)=C(Cl)C(=O)N1c1ccc(OC(F)F)cc1 [compound 3, 2,3-dichloro-N-(p-difluoromethoxyphenyl)maleimide]
311 leaves: Number of Leaves Showing Each Infestation Index: 0 ([6]; index 0 = 0 spots per leaf)
> 10 mg/L: LC50 at 48 h [8]
- (0%): Phytotoxicity of Treating Compound ([1]; dilution × 500, 600 l/10 a) | Phytotoxicity of Treating Compound ([1]; dilution × 750, 600 l/10 a) | Phytotoxicity of Treating Compound [3] | Phytotoxicity of Treating Compound [4] | Phytotoxicity of Treating Compound [10] | Phytotoxicity of Treating Compound [14] | Phytotoxicity of Treating Compound [18] | Phytotoxicity of Treating Compound [19] | Phytotoxicity of Treating Compound [20]
negative: Ames test TA-100 [7] | Ames test TA-98 [16]
2%: Average Infestation Rate (%) (Based on infested area) [21]
187 leaves: Number of Leaves Showing Each Infestation Index: 0 ([13]; index 0 = 0-25% infested area)
0: Infestation Rate ([5]; seven days, (Σnf/3N)×100) | Infestation Rate ([11]; six days, (Σnf/3N)×100) | Infestation Rate ([12]; 24 days, (Σnf/4N)×100) | Infestation Rate ([13]; 24 days, (Σnf/4N)×100)
0.2: Infestation Rate ([6]; 23 days, (Σnf/3N)×100)
0%: Average Infestation Rate (%) (Based on infested area) [2] | Infested Leaves (%) ([5]; seven days after inoculation) | Spore-germination Rate (%) [9] | Infested Leaves (%) ([11]; six days after inoculation) | Infested Leaves (%) ([12]; 24 days after inoculation) | Infested Leaves (%) ([13]; 24 days after inoculation) | Average Infestation Rate (%) (Based on infested area) [15]
20 leaves: Number of Leaves Showing Each Infestation Index: 0 ([11]; index 0 = 0% infested area)
25 leaves: Number of Leaves Showing Each Infestation Index: 0 ([5]; index 0 = 0% infested area)
2 leaves: Number of Leaves Showing Each Infestation Index: 1 ([6]; index 1 = 1-3 spots per leaf)
> 300 mg/kg: LD50 [17]
0 leaves: Number of Leaves Showing Each Infestation Index: 1 ([5]; index 1 = 1-25% infested area) | Number of Leaves Showing Each Infestation Index: 2 ([5]; index 2 = 26-50% infested area) | Number of Leaves Showing Each Infestation Index: 3 [5, 22] | Number of Leaves Showing Each Infestation Index: 2 ([6]; index 2 = 4-10 spots per leaf) | Number of Leaves Showing Each Infestation Index: 3 ([6]; index 3 = ≥11 spots per leaf) | Number of Leaves Showing Each Infestation Index: 1 ([11]; index 1 = 1-25% infested area) | Number of Leaves Showing Each Infestation Index: 2 ([11]; index 2 = 26-50% infested area) | Number of Leaves Showing Each Infestation Index: 3 [11, 22] | Number of Leaves Showing Infestation Index 1 ([12]; index 1 = 26-50% infested area, 24 days) | Number of Leaves Showing Infestation Index 2 ([12]; index 2 = 51-75% infested area, 24 days) | Number of Leaves Showing Infestation Index 3 ([12]; index 3 = 76-90% infested area, 24 days) | Number of Leaves Showing Infestation Index 4 ([12]; index 4 = 91-100% infested area, 24 days) | Number of Leaves Showing Each Infestation Index: 1 ([13]; index 1 = 26-50% infested area) | Number of Leaves Showing Each Infestation Index: 2 ([13]; index 2 = 51-75% infested area) | Number of Leaves Showing Each Infestation Index: 3 ([13]; index 3 = 76-90% infested area) | Number of Leaves Showing Each Infestation Index: 4 ([13]; index 4 = 91-100% infested area)
0.6%: Infested Leaves (%) ([6]; 23 days after inoculation)
271 leaves: Number of Leaves Showing Infestation Index 0 ([12]; index 0 = 0-25% infested area, 24 days)

Reference: patent US4455315A, “N-(Difluoromethoxy substituted phenyl)-dichloromaleimides used in agricultural and horticultural fungicidal methods” (Showa Denko Kabushiki Kaisha, priority 1980, dated 1984)
